From patent publication US20190263796A1, “LIM KINASE INHIBITORS, PHARMACEUTICAL COMPOSITION AND METHOD OF USE IN LIMK-MEDIATED DISEASES” (CELLIPSE, priority 2016, published 2019)
pIC50: −log10 of the molar value. Like-named read-outs stand apart in the source and are kept apart here.

Experiments:
LIMK1(h) = LIMK1(h) (Homo sapiens, UniProt P53667); experiment: LIMK1 kinase assay (Eurofins Panlabs, radiometric); type: biochemical; parameters: purchased Eurofins Panlabs Inc. (contract assay service)
Description: Compounds were tested in a LIMK1 assay performed by Eurofins Panlabs Inc. LIMK1 (h) is incubated with 8 mM MOPS pH 7.0, 0.2 mM EDTA, 0.6 mg/mL cofilin, 10 mM Magnesium acetate and [gamma-33P]-ATP. The reaction is initiated by the addition of the Mg/ATP mix. After incubation for 40 min at room temperature, the reaction is stopped by the addition of phosphoric acid to a concentration of 0.5%. […] IC50 LIMK1 is then determined.

[1] = tested on: Phospho-Ser3-Cofilin/Total Cofilin; experiment: Western blot cofilin phosphorylation, MV4-11 (II.6); type: cell-based; conditions: MV4-11 cells
Description: (§1) MV4-11 cell line was originally purchased from the American Type Culture Collection (ATCC) or from the Leibniz-Institut Deutsche Sammlung von Mikroorganismen und Zellkulturen GmbH (DSMZ). MV4-11 cells are cultured in RPMI 1640 20% (v/v) FBS supplemented with 100 U/mL^−1 penicillin, 0.1 mg·mL^−1 streptomycin (PAN Biotech P06-07100) and 2 mM Glutamine (Sigma-Aldrich 59202C). Cells were maintained at 37° C. with 5% CO2.
(§2) In a 6 wells plate (Falcon 353046), 2·10^6 cells in 1.5 mL medium are treated for 2 h with compounds. Cells are then collected and cell lysis is performed at 4° C. using RIPA buffer supplemented with protease inhibitors cocktail (Sigma-Aldrich P8340) and phosphatase inhibitors cocktail (Sigma-Aldrich P5726). Following centrifugation 30 min 15000 g 4° C., supernatants are mixed with Laemmli buffer and denaturation is performed by heating 5 min 95° C. 10 μL of samples are subjected to electrophoresis on 15% SDS-PAGE. After electro-transfer (Mini Transblot, Bio-Rad), the PVDF membrane (Merck-Millipore Immobilon P IPVH00010) is blocked with Tris Buffered Saline, pH 7.4 (TBS) with 0.1% Tween 20 and 5% BSA for 1 h RT under agitation. The membrane was rinsed 3 times 10 min at room temperature under agitation with TBS, 0.1% Tween-20 (TBST) and then 1 h at room temperature with anti-phospho-Ser3-cofilin (Cell Signaling Technology #3313, 1/1000 dilution) antibody or anti-cofilin (Cell Signaling Technology #3312, 1/1000 dilution) diluted in TBS, 0.1% Tween 20 and 1% BSA. The membrane is then rinsed 3 times 10 min at room temperature under agitation in TBST and incubated for 1 h with anti-rabbit secondary antibody, horseradish peroxidase conjugated (Jackson Immunoresearch #711-036-152) under agitation at room temperature. After three washes 10 min at room temperature in TBST, the detection of total or phosphorylated cofilin was performed using chemiluminescence kit ECL™ Plus (GE Healthcare RPN2132). For each concentration of compound, ratio between phosphorylated cofilin and total cofilin is determined. This ratio is then expressed as percentage of control ratio (i.e., ratio from DMSO treated cells). IC50 Phospho-Ser3-Cofilin/Total Cofilin is then determined.

[2] = tested on: Phospho-Ser3-Cofilin/Total Cofilin; experiment: Western blot cofilin phosphorylation, MOLM-14; type: cell-based; conditions: MOLM-14 cells, 2 h
Description: (§3) MOLM-14 cell line was originally purchased from the American Type Culture Collection (ATCC). MOLM-14 cells are cultured in MEM alpha 10% (v/v) FBS supplemented with 100 U/mL^−1 penicillin, 0.1 mg·mL^−1 streptomycin (PAN Biotech P06-07100). Cells were maintained at 37° C. with 5% CO2.
as §2

P-MEK/Total MEK = experiment: Western blot MEK1 phosphorylation, MOLM-14; type: cell-based; conditions: for pIC50: 2 h; for Selectivity ratio: IC50 P-MEK/Total MEK divided by IC50 Phospho-Ser3-Cofilin/Total Cofilin
Description: as §3
In a 6 wells plate (Falcon 353046), 2·10^6 cells in 1.5 mL medium are treated for 2 h with compounds. Cells are then collected and cell lysis is performed at 4° C. using RIPA buffer supplemented with protease inhibitors cocktail (Sigma-Aldrich P8340) and phosphatase inhibitors cocktail (Sigma-Aldrich P5726). Following centrifugation 30 min 15000 g 4° C., supernatants are mixed with Laemmli buffer and denaturation is performed by heating 5 min 95° C. 10 μL of samples are subjected to electrophoresis on 15% SDS-PAGE. After electro-transfer (Mini Transblot, Bio-Rad), the PVDF membrane (Merck-Millipore Immobilon P IPVH00010) is blocked with Tris Buffered Saline, pH 7.4 (TBS) with 0.1% Tween 20 and 5% BSA for 1 h at room temperature under agitation. The membrane was rinsed 3 times 10 min at room temperature under agitation with TBS, 0.1% Tween-20 (TBST) and then 1 h at room temperature with anti-phospho-Ser218/222-MEK1 (Merck-Millipore 07-461, 1/1000 dilution) antibody or anti-MEK1 (Merck-Millipore 07-641, 1/1000 dilution) diluted in TBS, 0.1% Tween 20 and 1% BSA. The membrane is then rinsed 3 times 10 min RT under agitation in TBST and incubated for 1 h with anti-rabbit secondary antibody, horseradish peroxidase conjugated (Jackson Immunoresearch #711-036-152) under agitation at room temperature. After three washes 10 min at room temperature in TBST, the detection of total or phosphorylated cofilin was performed using chemiluminescence kit ECL™ Plus (GE Healthcare RPN2132). For each concentration of compound, ratio between phosphorylated cofilin and total cofilin is determined. This ratio is then expressed as percentage of control ratio (i.e., ratio from DMSO treated cells). IC50 P-MEK/Total MEK is then determined.
Selectivity ratios are calculated by dividing the IC50 P-MEK/Total MEK value (μM) by the IC50 Phospho-Ser3-Cofilin/Total Cofilin value (μM).

B-Raf(h) = B-Raf(h) (Homo sapiens, UniProt P15056); experiment: B-Raf kinase assay (Eurofins Panlabs, radiometric); type: biochemical; parameters: purchased Eurofins Panlabs Inc. (contract assay service)
Description: IC50 B-Raf is then determined.
Selectivity ratios are calculated by dividing the IC50 B-Raf (nM) by the IC50 LIMK1 (nM).

MV4-11 cells = experiment: Cell proliferation assay (PrestoBlue), MV4-11; type: cell-based; conditions: Homo sapiens, 48 h
Description: as §1, with “(ATCC).” for “(ATCC) or from the Leibniz-Institut Deutsche Sammlung von Mikroorganismen und Zellkulturen GmbH (DSMZ).”, “10%” for “20%”
The assay was performed in 96 wells microplate (Greiner Bioone 655090). MV4-11 cells are seeded at 5,000 cells per well. Compounds (or equivalent amounts of DMSO) are then added and cells are allowed to grow for 48 h. Proliferation is evaluated using PrestoBlue assay according to manufacturer recommendations. Results are expressed as GI50 (Growth Inhibition 50%: concentration at which proliferation is inhibited of 50%) in comparison to DMSO controls.

[3] = 120 μM ATP, Table 8, read-out: IC50 B-Raf
[4] = IC50 B-Raf (nM) divided by IC50 LIMK1 (nM), Table 8

B-Raf(h), sequence (P15056 whole entry): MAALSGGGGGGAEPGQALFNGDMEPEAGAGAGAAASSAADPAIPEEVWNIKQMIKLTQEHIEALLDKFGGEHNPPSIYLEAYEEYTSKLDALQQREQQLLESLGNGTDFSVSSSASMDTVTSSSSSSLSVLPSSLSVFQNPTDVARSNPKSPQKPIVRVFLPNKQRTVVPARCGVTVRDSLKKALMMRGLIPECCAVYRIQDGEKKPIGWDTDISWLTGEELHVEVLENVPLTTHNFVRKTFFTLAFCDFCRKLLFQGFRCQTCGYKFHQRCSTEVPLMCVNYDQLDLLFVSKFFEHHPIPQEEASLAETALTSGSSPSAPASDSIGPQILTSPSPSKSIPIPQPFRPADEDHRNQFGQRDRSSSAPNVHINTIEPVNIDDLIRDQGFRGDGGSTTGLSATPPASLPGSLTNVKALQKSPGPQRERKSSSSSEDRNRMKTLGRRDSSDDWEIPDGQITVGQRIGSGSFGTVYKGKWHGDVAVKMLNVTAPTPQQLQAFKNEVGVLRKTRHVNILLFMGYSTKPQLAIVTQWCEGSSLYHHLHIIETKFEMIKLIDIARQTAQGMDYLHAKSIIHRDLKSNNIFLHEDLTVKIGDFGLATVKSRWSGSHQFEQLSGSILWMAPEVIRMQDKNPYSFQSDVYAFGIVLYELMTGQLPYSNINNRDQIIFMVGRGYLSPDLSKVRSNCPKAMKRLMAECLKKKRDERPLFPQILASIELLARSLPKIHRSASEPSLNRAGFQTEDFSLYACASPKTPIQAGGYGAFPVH
LIMK1(h), sequence (P53667 whole entry): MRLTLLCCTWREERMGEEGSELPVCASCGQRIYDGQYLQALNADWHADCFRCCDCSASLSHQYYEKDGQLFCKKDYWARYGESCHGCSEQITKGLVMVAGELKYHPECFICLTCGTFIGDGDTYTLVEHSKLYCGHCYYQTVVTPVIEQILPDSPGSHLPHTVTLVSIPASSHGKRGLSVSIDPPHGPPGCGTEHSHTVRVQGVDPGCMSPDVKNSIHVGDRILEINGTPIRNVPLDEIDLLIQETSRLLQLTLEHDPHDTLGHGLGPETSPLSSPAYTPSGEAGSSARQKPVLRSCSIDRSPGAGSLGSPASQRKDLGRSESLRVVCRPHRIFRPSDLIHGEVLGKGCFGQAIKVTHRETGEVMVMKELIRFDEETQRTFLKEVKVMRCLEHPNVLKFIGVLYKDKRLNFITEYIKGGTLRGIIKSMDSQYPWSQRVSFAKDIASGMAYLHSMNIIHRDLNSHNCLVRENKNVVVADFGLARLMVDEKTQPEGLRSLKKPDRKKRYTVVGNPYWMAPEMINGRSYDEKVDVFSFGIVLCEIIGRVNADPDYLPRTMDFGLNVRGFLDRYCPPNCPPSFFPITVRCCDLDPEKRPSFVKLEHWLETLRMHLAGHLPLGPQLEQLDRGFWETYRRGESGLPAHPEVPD

Row | pIC50 (LIMK1(h); 15 μM ATP, Table 8, read-out: IC50 LIMK1) | pIC50 ([1]; 2 h) | pIC50 [2] | pIC50 (P-MEK/Total MEK; MOLM-14 cells, read-out: IC50 P-MEK/Total MEK) | pIC50 (LIMK1(h); 15 μM ATP, Table 2, read-out: IC50 LIMK1) | pIC50 ([1]; Homo sapiens, MV4-11, 2 h) | pIC50 (P-MEK/Total MEK; Homo sapiens, MOLM-14 cells, read-out: IC50 P-MEK/Total MEK) | SMILES | Selectivity ratio (P-MEK/Total MEK; MOLM-14 cells) | pIC50 (B-Raf(h); [3]) | Selectivity ratio (B-Raf(h); [4]) | pIC50 (LIMK1(h)) | pIC50 (LIMK1(h); read-out: IC50 LIMK1, Table 5, value reported in part II.1) | pIC50 ([1]; Homo sapiens, 2 h) | pIC50 ([2]; Homo sapiens) | GI50 (MV4-11 cells) | pIC50 (P-MEK/Total MEK; Homo sapiens, MOLM-14, 2 h, read-out: IC50 P-MEK/Total MEK, MOLM-14 cells) | selectivity ratio for LIMK1 over B-Raf (B-Raf(h); IC50 B-Raf (nM) divided by IC50 LIMK1 (nM)) | pIC50 (B-Raf(h); IC50 B-Raf, 120 μM ATP, Table 8) | pIC50 (B-Raf(h); IC50 B-Raf, Table 5) | pIC50 (P-MEK/Total MEK; read-out: IC50 P-MEK/Total MEK, MOLM-14 cells)
1 | > 8.00 | > 6.70 | > 6.70 | < 6.00 |  |  |  | O=S(=O)(Nc1cccc(-c2nc(CCO)sc2-c2ccnc(Nc3ccccc3)n2)c1F)c1c(F)cccc1F [8 (Na)] | 30 | 7.00 to 8.00 | 9 |  |  |  |  |  |  |  |  |  | 
2 |  |  |  |  |  |  |  | CC(C)(C)c1nc(-c2cccc(NS(=O)(=O)c3c(F)cccc3F)c2F)c(-c2ccnc(Nc3ccccc3)n2)s1 [Compound 1, N-(3-(2-(tert-butyl)-5-(2-(phenylamino)pyrimidin-4-yl)thiazol-4-yl)-2-fluorophenyl)-2,6-difluorobenzenesulfonamide] | 40 |  | 8 | 7.00 to 8.00 | 7.00 to 8.00 | > 6.70 | > 6.70 | ≤ 1 µM | < 6.00 | about 20 | 7.00 to 8.00 | 5.30 to 6.30 | 
3 |  |  |  |  | > 8.00 | 6.00 to 6.70 | < 6.00 | O=S(=O)(Nc1cccc(-c2nc(CCO)sc2-c2ccnc(Nc3ccccc3)n2)c1F)c1c(F)cccc1F [Compound 8, 2,6-difluoro-N-(2-fluoro-3-(2-(2-hydroxyethyl)-5-(2-(phenylamino)pyrimidin-4-yl)thiazol-4-yl)phenyl)benzenesulfonamide] | 100 |  |  |  |  |  | > 6.70 | ≤ 1 µM |  |  |  |  | 
4 |  |  |  |  |  |  |  | CNC(=O)Cc1nc(-c2cccc(NS(=O)(=O)c3c(F)cccc3F)c2F)c(-c2ccnc(Nc3ccccc3)n2)s1 [Compound 9, 2-(4-(3-(2,6-difluorophenylsulfonamido)-2-fluorophenyl)-5-(2-(phenylamino)pyrimidin-4-yl)thiazol-2-yl)-N-methylacetamide] |  | 7.00 to 8.00 |  |  |  | 6.00 to 6.70 | > 6.70 | 1 to 5 µM |  |  |  |  | < 6.00
